According to paper PMC4331264 (Biochimica et biophysica acta, 2015):
Like-named read-outs stand apart in the source and are kept apart here.

Tests used:
[1] = tested on: Ste2p-FT-HT signalling in LM102 cells (FUS1-lacZ); assay: FUS1-lacZ reporter gene assay; type: cell-based, Saccharomyces cerevisiae; settings: for FUS1-lacZ reporter gene activity of peptide alone: peptide alone (30 μM), absence of α-factor; for increase in FUS1-lacZ reporter gene activity over α-factor alone: α-factor 50 nM plus peptide 30 μM, 90 min, 30°C, mean of three determinations
[2] = tested on: Saccharomyces cerevisiae LM102 cells expressing Ste2p-FT-HT; assay: Growth arrest; type: cell-based; settings: for growth arrest activity of peptide alone: peptide alone 15 μg/disk, no α-factor; for halo (zone of growth inhibition) area on co-spotting with α-factor: α-factor 0.1 μg/disk plus peptide 15 μg/disk, three replicates; for halo area in presence of novobiocin: novobiocin 2.2 mg/4.5 ml Noble agar-cell mixture
[3] = tested on: Ste2p; settings: cited from earlier work
[4] = tested on: Ste2p; settings: cited from earlier work; remark: listed apart in the source
[5] = target: T1, Ste2p-FT-HT (Saccharomyces cerevisiae, UniProt D6VTK4, C252S/C59S); type: binding; settings: [Bio-DOPA]11-mer 85 μM
[6] = target: T1, Ste2p-FT-HT; type: binding; settings: [3H]α-factor 5 nM; novobiocin 10^−4 M to 10^−11 M; 30 min on ice
[7] = target: T1, Ste2p-FT-HT; type: binding; settings: read-out: cross-linking of [Bio-DOPA]13-mer, % of control, novobiocin 5 mM, [Bio-DOPA]13-mer 10 μM

T1 sequence (D6VTK4 whole entry C59S/C252S): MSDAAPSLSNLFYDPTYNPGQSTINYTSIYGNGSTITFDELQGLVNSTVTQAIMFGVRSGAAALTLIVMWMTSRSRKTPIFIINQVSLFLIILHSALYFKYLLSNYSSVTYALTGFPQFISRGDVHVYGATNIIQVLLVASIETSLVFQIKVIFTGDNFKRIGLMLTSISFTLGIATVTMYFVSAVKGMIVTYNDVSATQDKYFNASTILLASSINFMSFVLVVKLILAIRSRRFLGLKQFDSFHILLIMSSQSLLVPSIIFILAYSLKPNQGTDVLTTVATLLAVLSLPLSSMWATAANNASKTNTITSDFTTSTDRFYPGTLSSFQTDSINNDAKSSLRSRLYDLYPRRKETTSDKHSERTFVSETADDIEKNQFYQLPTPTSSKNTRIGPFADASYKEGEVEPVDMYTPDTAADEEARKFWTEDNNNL

**Q.** Which “FUS1-lacZ reporter gene activity of peptide alone” value [1] does the source give for “DOPA-HWLQLK(BiotinACA)PGQP [[Bio-DOPA]11-mer, [DOPA^1, K^7 (BiotinACA),desM^12desY^13] α-factor]” here?
**A.** Its value is “no intrinsic biological activity”.

**Q.** And the “increase in FUS1-lacZ reporter gene activity over α-factor alone” value [1]?
**A.** Its value is “approximately 2 fold”.

**Q.** And the “growth arrest activity of peptide alone” value [2]?
**A.** Its value is “no intrinsic biological activity”.

**Q.** What about the “halo (zone of growth inhibition) area on co-spotting with α-factor” value [2] of the same molecule?
**A.** The value was 309 ± 27 mm^2.

**Q.** Which results are given for WHWLQLKPGQP [11-mer]?
**A.** FUS1-lacZ reporter gene activity of peptide alone [1]: did not stimulate reporter gene activity over control levels; increase in FUS1-lacZ reporter gene activity over α-factor alone [1]: 2.5 fold; competition for binding with α-factor [3]: did not compete for binding with α-factor; influence on affinity of the receptor for α-factor ([3]; wild-type yeast strain): did not influence the affinity of the receptor for the ligand; growth arrest activity of peptide alone [2]: no biological activity; halo (zone of growth inhibition) area on co-spotting with α-factor [2]: 382 ± 36 mm^2; innate biological activity ([4]; wild-type yeast strain): no innate biological activity; agonist activity in supersensitive mutant ([4]; yeast mutant supersensitive to the ligand): very weak agonist

**Q.** Which biological activity ([4]; binds the orthosteric site of the receptor) does the source give for “[DOPA^1, K^7 (BiotinACA)] α-factor [[Bio-DOPA]13-mer]” here?
**A.** The biological activity was “retains biological activity”.

**Q.** Which “FUS1-lacZ response to novobiocin in presence of α-factor” value ([1]; 25 nM α-factor, repeated three times) does the source give for `CO[C@@H]1[C@@H](OC(N)=O)[C@@H](O)[C@H](Oc2ccc3c(O)c(NC(=O)c4ccc(O)c(CC=C(C)C)c4)c(=O)oc3c2C)OC1(C)C` [novobiocin] here?
**A.** Its value is “dose-dependent increase in activity up to 12.5 μM”.

**Q.** And the “FUS1-lacZ reporter gene activity, novobiocin by itself” value ([1]; no α-factor, concentrations up to 37.5 μM)?
**A.** Its value is “failed to increase reporter gene activity”.

**Q.** And the “FUS1-lacZ reporter gene activity, novobiocin by itself, higher amounts” value ([1]; no α-factor, up to 400 μM, data not shown)?
**A.** Its value is “failed to stimulate reporter gene activity”.

**Q.** What about the “maximal inhibition of [Bio-DOPA]11-mer cross-linking” value ([5]; between 10 and 50 mM novobiocin, Fig. 6) of the same molecule?
**A.** Its value is ~ 90%.

**Q.** And the remaining activity at 5000 µM ([5]; read-out: labeling (cross-linking of [Bio-DOPA]11-mer), % of control level, novobiocin 5 mM, average over 3 replicate blots)?
**A.** Its remaining activity at 5000 µM is 26%.

**Q.** And the “competition with [3H]α-factor for binding to Ste2p-FT-HT” value [6]?
**A.** The value was “did not prevent α-factor binding to the receptor”.

**Q.** And the remaining activity at 5000 µM ([7]; average over 3 replicate blots)?
**A.** The remaining activity at 5000 µM was 118%.

**Q.** What about the remaining activity at 5000 µM ([7]; blot in Fig. 5) of the same molecule?
**A.** The remaining activity at 5000 µM was 136%.

**Q.** And the “intrinsic agonistic activity in growth arrest assay” value ([2]; novobiocin by itself, up to 2.2 mg/disk)?
**A.** The value was “no measurable, intrinsic agonistic activity”.

**Q.** What about the “increase of halo area in presence of novobiocin, without paper disk” value ([2]; α-factor 10 ng spotted directly onto lawn containing novobiocin 2.2 mg/lawn) of the same molecule?
**A.** Its value is 45%.

**Q.** What about the “halo area in presence of novobiocin” value ([2]; α-factor 0.1 μg/disk) of the same molecule?
**A.** Its value is 155 ± 24 mm^2.

**Q.** And the “halo area in presence of novobiocin” value ([2]; α-factor 0.2 μg/disk)?
**A.** Its value is 273 ± 14 mm^2.

**Q.** And the “agonistic activity in growth arrest assays” value ([4]; S. cerevisiae strain supersensitive to α-factor)?
**A.** Its value is “weak agonistic activity”.
